Data taken from patent publication US6844190B2, “St-B17 serotonin receptor” (The United States of America as represented by the …, priority 1992, dated 2005).
Like-named read-outs stand apart in the source and are kept apart here.

Legend:
[1] = molecular target: T1, St-B17 serotonin receptor (Rattus norvegicus, UniProt P31388); assay: [125I]-LSD competition binding, Cos-7 cell membranes expressing St-B17; details: 0.5 nM [125I]-LSD, Cos-7 membranes, n=3, Cheng-Prussoff from IC50; read-out: Ki vs. [125I]-LSD, Mean ± SEM
T1 construct: expressed in transfected cells; host or cells: Cos-7 cells, transient transfection, crude membranes
Experimental: (§1) This experiment was performed on Cos-7 cell membranes expressing the St-B17 serotonin receptor.

[2] = molecular target: T2, St-B17 serotonin receptor (Rattus norvegicus, UniProt P31388, L57V); assay: as above; set-up: expressed in transfected cells; host or cells: Cos-7 cells, transient transfection, crude membranes; details: for affinity for St-B17 (in words): qualitative statement
Experimental: as §1

[3] = molecular target: T2, St-B17 serotonin receptor; assay: [3H]-5-HT competition binding, Cos-7 cell membranes expressing St-B17; set-up: expressed in transfected cells; host or cells: Cos-7 cells, transient transfection, crude membranes; details: 5 nM [3H]-5-HT, Cos-7 membranes, n=3, Cheng-Prussoff from IC50; read-out: Ki vs. [3H]-5-HT, Mean ± SEM
[4] = molecular target: T2, St-B17 serotonin receptor; assay: Saturation analysis of [3H]-5-HT binding in transfected Cos-7 cells; set-up: expressed in transfected cells; host or cells: Cos-7 cells, transient transfection, crude membranes
Description: The binding of [^3H]-5-HT was similarly not affected by the addition of guanine nucleotides.

[5] = molecular target: T2, St-B17 serotonin receptor
[6] = inhibition constant (Ki), screened compounds, radioligand not restated
[7] = screened compounds, radioligand not restated, read-out: inhibition constant (Ki)

T1 sequence (P31388 with tags, fused parts or gaps L57V): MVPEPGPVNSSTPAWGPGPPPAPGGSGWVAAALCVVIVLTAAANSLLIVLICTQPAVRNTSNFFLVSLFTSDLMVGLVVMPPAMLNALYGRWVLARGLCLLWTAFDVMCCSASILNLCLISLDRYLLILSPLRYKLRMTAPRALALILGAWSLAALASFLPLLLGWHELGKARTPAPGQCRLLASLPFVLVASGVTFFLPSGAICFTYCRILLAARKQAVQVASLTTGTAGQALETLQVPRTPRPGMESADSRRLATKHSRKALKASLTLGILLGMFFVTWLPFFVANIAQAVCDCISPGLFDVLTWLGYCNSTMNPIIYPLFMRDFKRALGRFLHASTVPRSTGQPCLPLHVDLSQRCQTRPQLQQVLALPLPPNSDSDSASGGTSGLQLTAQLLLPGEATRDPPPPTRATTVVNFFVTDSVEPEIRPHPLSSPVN
T2 sequence (P31388 with tags, fused parts or gaps L57V): as above

## CNCCC=C1c2ccccc2CCc2ccccc21 [Nortriptyline]
[1]
  Ki: 147 ± 2.61 nM

## Nc1ccc(CCN2CCN(c3cccc(C(F)(F)F)c3)CC2)cc1 [PAPP]
[1]
  Ki: 806 ± 75.2 nM

## CCCN1C[C@H](CSC)C[C@@H]2c3cccc4[nH]cc(c34)C[C@H]21 [Pergolide]
[2]
  affinity for St-B17 (in words): relatively high affinity
[1]
  Ki: 29.9 ± 7.31 nM

## Cc1nc2sccn2c(=O)c1CCN1CCC(=C(c2ccc(F)cc2)c2ccc(F)cc2)CC1 [Ritanerin]
[3]
  Ki: 16 ± 2 nM
[1]
  Ki: 44.1 ± 4.35 nM

## FC(F)(F)c1cccc(N2CCNCC2)c1 [TFMPP]
[2]; Ki vs. [125I]-LSD, Mean ± SEM, 0.5 nM [125I]-LSD, Cos-7 membranes, n=3, Cheng-Prussoff from IC50
  Ki: 0.482 ± 0.0372 µM

## NCCc1c[nH]c2ccc(O)cc12 [[^3H]-5-HT]
[4]; [3H]-5-HT saturation binding
  Bmax: 1-3 pMoles/mg protein
[4]; [3H]-5-HT saturation binding, n=3
  Kd: 37 nM
[4]; addition of guanine nucleotides
  effect of guanine nucleotides on binding: not affected

## CCN(CC)C(=O)[C@@H]1C=C2c3cccc4[nH]c(I)c(c34)C[C@H]2N(C)C1 [[^125I]-LSD, lysergic acid diethylamide]
[2]
  affinity for St-B17 (in words): relatively high affinity
[5]; KD, representative experiment (FIG. 1, scatchard analysis), single representative experiment
  Kd: 1.5 nM
[5]; dissociation constant (KD), [125I]-LSD saturation binding, Cos-7 membranes, mean n=3
  Kd: 1.26 nM
[5]; range over experiments
  maximum binding (Bmax): 2-5 pMoles/mg protein
[5]; single representative experiment
  Bmax, representative experiment (FIG. 1): 3.4 pMoles mg protein^−1

## CN(C)CCCC1(c2ccc(F)cc2)OCc2cc(C#N)ccc21 (stereo not shown) [citalopram]
[2]; [6]
  Ki: > 10 µM

## NCCc1ccc(O)c(O)c1 [dopamine]
[2]; [7]
  Ki: > 10 µM

## CNC[C@H](O)c1ccc(O)c(O)c1 [epinephrine]
[2]; [7]
  Ki: > 10 µM

## CCNC(C)Cc1cccc(C(F)(F)F)c1 (stereo not shown) [fenfluramine]
[2]; [6]
  Ki: > 10 µM

## NCCc1c[nH]cn1 [histamine]
[2]; [7]
  Ki: > 10 µM

## c1ccc2c(c1)OCC(C1=NCCN1)O2 (stereo not shown) [idazoxan]
[2]; [7]
  Ki: > 10 µM

## O=C(c1ccc(F)cc1)C1CCN(CCn2c(=O)[nH]c3ccccc3c2=O)CC1 [ketanserin]
[2]
  affinity for St-B17 (in words): relatively low affinity
[2]; [7]
  Ki: > 10 µM

## Clc1cccc(N2CCNCC2)c1 [mCPP]
[1]
  Ki: 2310 ± 343 nM

## COc1ccc2[nH]cc(CCNC(C)=O)c2c1 [melatonin]
[2]; [7]
  Ki: > 10 µM

## NC[C@H](O)c1ccc(O)c(O)c1 [norepinephrine]
[2]; [7]
  Ki: > 10 µM

## NCC(O)c1ccc(O)cc1 (stereo not shown) [octopamine]
[2]; [7]
  Ki: > 10 µM

## Fc1ccc([C@@H]2CCNC[C@H]2COc2ccc3c(c2)OCO3)cc1 [paroxetine]
[2]; [6]
  Ki: > 10 µM

## CC(C)NCC(O)COc1cccc2[nH]ccc12 (stereo not shown) [pindolol]
[2]; [7]
  Ki: > 10 µM

## O=C(CCCN1CCC2(CC1)C(=O)NCN2c1ccccc1)c1ccc(F)cc1 [spiroperidol]
[2]; [7]
  Ki: > 10 µM

## NCCc1ccc(O)cc1 [tyramine]
[2]; [7]
  Ki: > 10 µM

## COc1cc(N)c(Cl)cc1C(=O)NC1CN2CCC1CC2 (stereo not shown) [zacopride]
[2]; [7]
  Ki: > 10 µM

## CN(C)C/C=C(/c1ccc(Br)cc1)c1cccnc1 [zimelidine]
[2]; [7]
  Ki: > 10 µM

## N,ω-Methyltryptamine
[1]
  Ki: 342 ± 32.2 nM
